Values after ≈ are worked out from the molar mass of the structure shown. Active and inactive are the calls of the source. The calls are words filed in the database; no cut-off is given here.
Key:
[1] = test system: Escherichia coli; test: Antibacterial activity against Escherichia coli JW55031 harboring deltatolC mutant assessed as reduction in bacterial cell growth incubated for 18 to 20 hrs by broth microdilution method; assay type: functional
[2] = test system: Pseudomonas aeruginosa; test: Bactericidal activity against Pseudomonas aeruginosa ATCC 15442 assessed as reduction in bacterial cell growth incubated for 18 to 20 hrs followed by re-plating on tryptic soy agar plates at 37 degC for 18 hrs by broth microdilution assay; assay type: functional
[3] = test system: Staphylococcus aureus; test: Antibacterial activity against Staphylococcus aureus NRS107 assessed as reduction in bacterial cell growth incubated for 18 to 20 hrs by broth microdilution method; assay type: functional
[4] = test system: Staphylococcus aureus; test: Antibacterial activity against vancomycin resistant Staphylococcus aureus VRS10 assessed as reduction in bacterial cell growth incubated for 18 to 20 hrs by broth microdilution method; assay type: functional
[5] = test system: Staphylococcus aureus; test: Antibacterial activity against methicillin resistant Staphylococcus aureus USA400 assessed as reduction in bacterial cell growth incubated for 18 to 20 hrs by broth microdilution method; assay type: functional
[6] = test system: Acinetobacter baumannii; test: Antibacterial activity against Acinetobacter baumannii ATCC 19606 assessed as reduction in bacterial cell growth incubated for 18 to 20 hrs by broth microdilution method; assay type: functional
[7] = test system: Staphylococcus aureus; test: Bactericidal activity against methicillin resistant Staphylococcus aureus NRS119 assessed as reduction in bacterial cell growth incubated for 18 to 20 hrs followed by re-plating on tryptic soy agar plates at 37 degC for 18 hrs by broth microdilution assay; assay type: functional
[8] = test system: Staphylococcus aureus; test: Bactericidal activity against vancomycin resistant Staphylococcus aureus VRS11a assessed as reduction in bacterial cell growth incubated for 18 to 20 hrs followed by re-plating on tryptic soy agar plates at 37 degC for 18 hrs by broth microdilution assay; assay type: functional
[9] = test system: Escherichia coli; test: Bactericidal activity against Escherichia coli JW55031 harboring deltatolC mutant assessed as reduction in bacterial cell growth incubated for 18 to 20 hrs followed by re-plating on tryptic soy agar plates at 37 degC for 18 hrs by broth microdilution assay; assay type: functional
[10] = test system: Staphylococcus aureus; test: Bactericidal activity against Staphylococcus aureus NRS107 assessed as reduction in bacterial cell growth incubated for 18 to 20 hrs followed by re-plating on tryptic soy agar plates at 37 degC for 18 hrs by broth microdilution assay; assay type: functional
[11] = test system: Streptococcus pneumoniae; test: Antibacterial activity against Cephalosporin resistant Streptococcus pneumoniae ATCC 51916 assessed as reduction in bacterial cell growth incubated for 18 to 20 hrs by broth microdilution method; assay type: functional
[12] = test system: Staphylococcus aureus; test: Antibacterial activity against methicillin resistant Staphylococcus aureus NRS119 assessed as reduction in bacterial cell growth incubated for 18 to 20 hrs by broth microdilution method; assay type: functional
[13] = test system: Escherichia coli; test: BActericidal activity against Escherichia coli BW25113 assessed as reduction in bacterial cell growth incubated for 18 to 20 hrs followed by re-plating on tryptic soy agar plates at 37 degC for 18 hrs by broth microdilution assay; assay type: functional
[14] = test system: Staphylococcus epidermidis; test: Antibacterial activity against methicillin resistant Staphylococcus epidermidis NRS101 assessed as reduction in bacterial cell growth incubated for 18 to 20 hrs by broth microdilution method; assay type: functional
[15] = test system: J774; test: Cytotoxicity against mouse J774 assessed as reduction in cell viability at 16 ug/ml incubated for 24 hrs by MTS assay; assay type: cell-based; settings: j774, 24 h
[16] = test system: Staphylococcus aureus; test: Bactericidal activity against methicillin-resistant Staphylococcus aureus USA300 assessed as reduction in bacterial cell growth incubated for 18 to 20 hrs followed by re-plating on tryptic soy agar plates at 37 degC for 18 hrs by broth microdilution assay; assay type: functional
[17] = test system: Klebsiella pneumoniae; test: Antibacterial activity against Klebsiella pneumoniae BAA-1706 assessed as reduction in bacterial cell growth incubated for 18 to 20 hrs by broth microdilution method; assay type: functional
[18] = test system: Enterococcus faecalis; test: Antibacterial activity against vancomycin resistant Enterococcus faecalis ATCC 51299 assessed as reduction in bacterial cell growth incubated for 18 to 20 hrs by broth microdilution method; assay type: functional
[19] = test system: Enterococcus faecium; test: Bactericidal activity against vancomycin resistant Enterococcus faecium ATCC 700221 assessed as reduction in bacterial cell growth incubated for 18 to 20 hrs followed by re-plating on tryptic soy agar plates at 37 degC for 18 hrs by broth microdilution assay; assay type: functional
[20] = test system: Streptococcus pneumoniae; test: Bactericidal activity against Methicillin resistant Streptococcus pneumoniae ATCC 700677 assessed as reduction in bacterial cell growth incubated for 18 to 20 hrs followed by re-plating on tryptic soy agar plates at 37 degC for 18 hrs by broth microdilution assay; assay type: functional
[21] = test system: Staphylococcus aureus; test: Antibacterial activity against vancomycin resistant Staphylococcus aureus VRS11a assessed as reduction in bacterial cell growth incubated for 18 to 20 hrs by broth microdilution method; assay type: functional
[22] = test system: Klebsiella pneumoniae; test: Bactericidal activity against Klebsiella pneumoniae BAA-1706 assessed as reduction in bacterial cell growth incubated for 18 to 20 hrs followed by re-plating on tryptic soy agar plates at 37 degC for 18 hrs by broth microdilution assay; assay type: functional
[23] = Solubility of compound in PBS after 2 hrs by turbidity based absorbance analysis; assay type: physicochemical
[24] = test system: Staphylococcus epidermidis; test: Bactericidal activity against methicillin resistant Staphylococcus epidermidis NRS101 assessed as reduction in bacterial cell growth incubated for 18 to 20 hrs followed by re-plating on tryptic soy agar plates at 37 degC for 18 hrs by broth microdilution assay; assay type: functional
[25] = test system: Staphylococcus aureus; test: Antibacterial activity against methicillin-resistant Staphylococcus aureus USA300 assessed as reduction in bacterial cell growth incubated for 18 to 20 hrs by broth microdilution method; assay type: functional
[26] = test system: Staphylococcus aureus; test: Antibacterial activity against vancomycin resistant Staphylococcus aureus VRS12 assessed as reduction in bacterial cell growth incubated for 18 to 20 hrs by broth microdilution method; assay type: functional
[27] = test system: Enterococcus faecium; test: Antibacterial activity against vancomycin resistant Enterococcus faecium ATCC 700221 assessed as reduction in bacterial cell growth incubated for 18 to 20 hrs by broth microdilution method; assay type: functional
[28] = test system: Staphylococcus aureus; test: Bactericidal activity against Staphylococcus aureus ATCC 6538 assessed as reduction in bacterial cell growth incubated for 18 to 20 hrs followed by re-plating on tryptic soy agar plates at 37 degC for 18 hrs by broth microdilution assay; assay type: functional
[29] = test system: Acinetobacter baumannii; test: Bactericidal activity against Acinetobacter baumannii ATCC 19606 assessed as reduction in bacterial cell growth incubated for 18 to 20 hrs followed by re-plating on tryptic soy agar plates at 37 degC for 18 hrs by broth microdilution assay; assay type: functional
[30] = test system: Streptococcus pneumoniae; test: Bactericidal activity against Cephalosporin resistant Streptococcus pneumoniae ATCC 51916 assessed as reduction in bacterial cell growth incubated for 18 to 20 hrs followed by re-plating on tryptic soy agar plates at 37 degC for 18 hrs by broth microdilution assay; assay type: functional
[31] = test system: Enterococcus faecalis; test: Bactericidal activity against vancomycin resistant Enterococcus faecalis ATCC 51299 assessed as reduction in bacterial cell growth incubated for 18 to 20 hrs followed by re-plating on tryptic soy agar plates at 37 degC for 18 hrs by broth microdilution assay; assay type: functional
[32] = test system: Staphylococcus aureus; test: Antibacterial activity against intracellular methicillin resistant Staphylococcus aureus USA400 infected in mouse J774 cells assessed as log10 reduction of viable bacterial cells incubated for 24 hrs followed by re-plating on tryptic soy agar plates at 37 degC for 18 to 22 hrs by broth microdilution assay; assay type: functional
[33] = test system: Listeria monocytogenes; test: Bactericidal activity against Listeria monocytogenes ATCC 19111 assessed as reduction in bacterial cell growth incubated for 18 to 20 hrs followed by re-plating on tryptic soy agar plates at 37 degC for 18 hrs by broth microdilution assay; assay type: functional

Structure (SMILES)	MIC [1]	MBC [2]	MIC [3]	MIC [4]	MIC [5]	MIC [6]	MBC [7]	MBC [8]	MBC [9]	MBC [10]	MIC [11]	MIC [12]	MBC [13]	MIC [14]	Activity [15]	MBC [16]	MIC [17]	MIC [18]	MBC [19]	MBC [20]	also measured
C/C(=N\NC(=N)N)c1sc(-c2ccc(C#Cc3ccc(N)cc3)cc2)nc1C	16 µg/mL (≈ 41.2 µM)	> 64 µg/mL	4 µg/mL (≈ 10.3 µM)	16 µg/mL (≈ 41.2 µM)	4 µg/mL (≈ 10.3 µM)	64 µg/mL (≈ 165 µM)	16 µg/mL (≈ 41.2 µM)	32 µg/mL (≈ 82.4 µM)	16 µg/mL (≈ 41.2 µM)	8 µg/mL (≈ 20.6 µM)	32 µg/mL (≈ 82.4 µM)	8 µg/mL (≈ 20.6 µM)	> 64 µg/mL	2 µg/mL (≈ 5.15 µM)	Non-Toxic	16 µg/mL (≈ 41.2 µM)	> 64 µg/mL	> 64 µg/mL	16 µg/mL (≈ 41.2 µM)	32 µg/mL (≈ 82.4 µM)	MIC [21]: 16 µg/mL (≈ 41.2 µM); MBC [22]: > 64 µg/mL; solubility kinetic at 2 h [23]: 105 µM (≈ 40.8 µg/mL); MBC [24]: 2 µg/mL (≈ 5.15 µM); MIC [25]: 4 µg/mL (≈ 10.3 µM); MIC [26]: 16 µg/mL (≈ 41.2 µM); MIC [27]: 4 µg/mL (≈ 10.3 µM); MBC [28]: 4 µg/mL (≈ 10.3 µM); MBC [29]: > 64 µg/mL; MBC [30]: 32 µg/mL (≈ 82.4 µM); MBC [31]: > 64 µg/mL; Activity call [32]: inactive; MBC [33]: > 64 µg/mL
C/C(=N\NC(=N)N)c1sc(-c2ccc(C#CC(C)(C)O)cc2)nc1C	16 µg/mL (≈ 45 µM)	> 64 µg/mL	4 µg/mL (≈ 11.3 µM)	4 µg/mL (≈ 11.3 µM)	2 µg/mL (≈ 5.63 µM)	64 µg/mL (≈ 180 µM)	4 µg/mL (≈ 11.3 µM)	4 µg/mL (≈ 11.3 µM)	16 µg/mL (≈ 45 µM)	4 µg/mL (≈ 11.3 µM)	4 µg/mL (≈ 11.3 µM)	2 µg/mL (≈ 5.63 µM)	> 64 µg/mL	4 µg/mL (≈ 11.3 µM)	Toxic	16 µg/mL (≈ 45 µM)	> 64 µg/mL	4 µg/mL (≈ 11.3 µM)	4 µg/mL (≈ 11.3 µM)	8 µg/mL (≈ 22.5 µM)	MIC [21]: 1 µg/mL (≈ 2.81 µM); MBC [22]: > 64 µg/mL; solubility kinetic at 2 h [23]: 320 µM (≈ 114 µg/mL); MBC [24]: 4 µg/mL (≈ 11.3 µM); MIC [25]: 4 µg/mL (≈ 11.3 µM); MIC [26]: 4 µg/mL (≈ 11.3 µM); MIC [27]: 2 µg/mL (≈ 5.63 µM); MBC [28]: 4 µg/mL (≈ 11.3 µM); MBC [29]: 64 µg/mL (≈ 180 µM); MBC [30]: 8 µg/mL (≈ 22.5 µM); MBC [31]: 8 µg/mL (≈ 22.5 µM); MBC [33]: 8 µg/mL (≈ 22.5 µM)
C/C(=N\NC(=N)N)c1sc(-c2ccc(C#Cc3ccc(C)s3)cc2)nc1C	32 µg/mL (≈ 81.3 µM)	> 64 µg/mL	4 µg/mL (≈ 10.2 µM)	4 µg/mL (≈ 10.2 µM)	2 µg/mL (≈ 5.08 µM)	32 µg/mL (≈ 81.3 µM)	4 µg/mL (≈ 10.2 µM)	8 µg/mL (≈ 20.3 µM)	64 µg/mL (≈ 163 µM)	4 µg/mL (≈ 10.2 µM)	8 µg/mL (≈ 20.3 µM)	4 µg/mL (≈ 10.2 µM)	> 64 µg/mL	4 µg/mL (≈ 10.2 µM)	Non-Toxic	16 µg/mL (≈ 40.7 µM)	32 µg/mL (≈ 81.3 µM)	16 µg/mL (≈ 40.7 µM)	4 µg/mL (≈ 10.2 µM)	32 µg/mL (≈ 81.3 µM)	MIC [21]: 4 µg/mL (≈ 10.2 µM); MBC [22]: 64 µg/mL (≈ 163 µM); solubility kinetic at 2 h [23]: 12 µM (≈ 4.72 µg/mL); MBC [24]: 4 µg/mL (≈ 10.2 µM); MIC [25]: 8 µg/mL (≈ 20.3 µM); MIC [26]: 8 µg/mL (≈ 20.3 µM); MIC [27]: 2 µg/mL (≈ 5.08 µM); MBC [28]: 4 µg/mL (≈ 10.2 µM); MBC [29]: 64 µg/mL (≈ 163 µM); MBC [30]: 16 µg/mL (≈ 40.7 µM); MBC [31]: 64 µg/mL (≈ 163 µM); Activity [32]: 0.21 log10CFU; MBC [33]: 32 µg/mL (≈ 81.3 µM)
C/C(=N\NC(=N)N)c1sc(-c2ccc(C#CC3(O)CCCCC3)cc2)nc1C	32 µg/mL (≈ 80.9 µM)	> 64 µg/mL	4 µg/mL (≈ 10.1 µM)	2 µg/mL (≈ 5.06 µM)	4 µg/mL (≈ 10.1 µM)	64 µg/mL (≈ 162 µM)	4 µg/mL (≈ 10.1 µM)	8 µg/mL (≈ 20.2 µM)	32 µg/mL (≈ 80.9 µM)	8 µg/mL (≈ 20.2 µM)	8 µg/mL (≈ 20.2 µM)	2 µg/mL (≈ 5.06 µM)	> 64 µg/mL	4 µg/mL (≈ 10.1 µM)	Non-Toxic	16 µg/mL (≈ 40.5 µM)	> 64 µg/mL	8 µg/mL (≈ 20.2 µM)	1 µg/mL (≈ 2.53 µM)	8 µg/mL (≈ 20.2 µM)	MIC [21]: 1 µg/mL (≈ 2.53 µM); MBC [22]: > 64 µg/mL; solubility kinetic at 2 h [23]: 147 µM (≈ 58.1 µg/mL); MBC [24]: 4 µg/mL (≈ 10.1 µM); MIC [25]: 4 µg/mL (≈ 10.1 µM); MIC [26]: 4 µg/mL (≈ 10.1 µM); MIC [27]: 1 µg/mL (≈ 2.53 µM); MBC [28]: 4 µg/mL (≈ 10.1 µM); MBC [29]: 64 µg/mL (≈ 162 µM); MBC [30]: 8 µg/mL (≈ 20.2 µM); MBC [31]: 16 µg/mL (≈ 40.5 µM); Activity call [32]: Active; MBC [33]: 8 µg/mL (≈ 20.2 µM)

Reference: ChEMBL document CHEMBL4393697, “Lipophilic efficient phenylthiazoles with potent undecaprenyl pyrophosphatase inhibitory activity” (Eur J Med Chem, 2019)
